Measured values as given in patent publication EP0533833B1, “PHOSPHOROUS PRODUGS” (priority 1990, dated 1991).
Like-named read-outs stand apart in the source and are kept apart here.

What was measured:
[1] = test system: HIV; assay: Antiviral assay, HIV-induced cytopathic effect in CEM cells (tetrazolium/formazan viability readout); format: cell-based; conditions: Human immunodeficiency virus 1, CCRF-CEM; for IC90: read-out: IC₉₀
Method: (§1) The antiviral activity of the AZT prodrug was evaluated in the Retrovirus Research Laboratory at Southern Research Institute. The AZT prodrug (Structure 5) was tested against HIV in CEM cells in a standardized assay system. In this assay the CEM cells were grown in microtitre plates and incubated for 6 day with or without a HIV. The cells were incubated with prodrug or AZT at varying concentrations. After 6 days the percentage of viable cells was measured by employing a standardized assay based upon the conversion of a tetrazolium salt to a formazan chromaphore by viable cells. (T.Mossman; J.Immunol.Methods 65:55 (1983)) The production of the chromaphore was measured spectrophotometrically with a Molecular Devices Vmax plate reader at 570 nm. From the optical density data a computer program calculated the per cent reduction in viral cytopathic effect (CPE), the prodrugs cytotoxic effect, and IC₅₀ values.
The IC₅₀ value; defined as that concentration of drug inhibited the HIV induced CPE 50% was 24 nanamolar for the AZT prodrug. […] When the prodrug was added to the cell cultures 8 hours prior to infecting with HIV the IC₅₀ for the prodrug was 5 nanamolar. The IC9₉₀ for the prodrug was 10 nanamolar. The IC₅₀ for AZT under the same conditions was also 5 nanamolar. The IC₉₀ for AZT was 10 nanamolar. The data is summarized in the graph below for an experiment in which the prodrug or AZT were added 8 hours prior to the time of infection with the HIV. [formula] The graph below summarizes the results of an experiment in which the antiviral activity of the AZT prodrug was added 8 hours prior to infection or at the time of infection. [formula]

[2] = molecular target: T1, acetylcholinesterase (Electrophorus electricus, UniProt O42275); assay: Acetylcholinesterase activity inhibition assay, electric eel extract; format: biochemical; conditions: at 10⁻⁵ M
T1 construct: tested for anticholinesterase acitivity in chicken brain homogenate and electric eel extract; from tissue
T1 sequence (O42275 24-633): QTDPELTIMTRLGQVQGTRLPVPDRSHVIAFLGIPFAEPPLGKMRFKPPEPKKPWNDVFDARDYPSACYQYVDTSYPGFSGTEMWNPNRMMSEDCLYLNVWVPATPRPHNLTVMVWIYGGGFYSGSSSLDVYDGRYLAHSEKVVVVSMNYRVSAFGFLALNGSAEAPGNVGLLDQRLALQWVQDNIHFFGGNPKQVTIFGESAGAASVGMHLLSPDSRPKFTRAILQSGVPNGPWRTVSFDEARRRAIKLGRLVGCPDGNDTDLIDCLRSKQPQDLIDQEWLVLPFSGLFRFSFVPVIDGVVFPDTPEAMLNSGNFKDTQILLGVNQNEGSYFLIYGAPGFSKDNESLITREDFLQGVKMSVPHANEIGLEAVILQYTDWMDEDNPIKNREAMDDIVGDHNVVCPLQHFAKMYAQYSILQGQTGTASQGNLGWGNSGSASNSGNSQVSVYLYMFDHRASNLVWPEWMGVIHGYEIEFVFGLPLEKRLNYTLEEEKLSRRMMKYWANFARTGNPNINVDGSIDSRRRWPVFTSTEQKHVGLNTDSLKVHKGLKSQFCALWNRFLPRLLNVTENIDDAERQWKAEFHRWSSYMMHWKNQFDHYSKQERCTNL
Method: (§2) The AZT prodrug was evaluated for anticholinesterase activity at the Laboratory of Neurotoxicology and Pharmacology at Duke University using a standard well established acetylcholinesterase activity inhibition assay. Elleman et. al.; Biochemical Pharmacology; 7:88 (1962) The prodrug was tested for anticholinesterase acitivity in chicken brain homogenate and electric eel extract.

[3] = Cytotoxicity in uninfected CEM cells (tetrazolium/formazan viability readout); format: cell-based; conditions: human, 6 days, read-out: TC₅₀ (concentration that resulted in a 50% reduction of cell viability in uninfected cells)
Method: as §1
The IC₅₀ value; defined as that concentration of drug inhibited the HIV induced CPE 50% was 24 nanamolar for the AZT prodrug. […] When the prodrug was added to the cell cultures 8 hours prior to infecting with HIV the IC₅₀ for the prodrug was 5 nanamolar. The IC9₉₀ for the prodrug was 10 nanamolar. The IC₅₀ for AZT under the same conditions was also 5 nanamolar. The IC₉₀ for AZT was 10 nanamolar. […]

[4] = molecular target: T2, acetylcholinesterase (Gallus gallus, UniProt P36196); assay: Acetylcholinesterase activity inhibition assay, chicken brain homogenate; format: biochemical; conditions: at 10⁻⁵ M
T2 construct: tested for anticholinesterase acitivity in chicken brain homogenate and electric eel extract; from tissue; host or cells: chicken brain homogenate
T2 sequence (P36196 20-767): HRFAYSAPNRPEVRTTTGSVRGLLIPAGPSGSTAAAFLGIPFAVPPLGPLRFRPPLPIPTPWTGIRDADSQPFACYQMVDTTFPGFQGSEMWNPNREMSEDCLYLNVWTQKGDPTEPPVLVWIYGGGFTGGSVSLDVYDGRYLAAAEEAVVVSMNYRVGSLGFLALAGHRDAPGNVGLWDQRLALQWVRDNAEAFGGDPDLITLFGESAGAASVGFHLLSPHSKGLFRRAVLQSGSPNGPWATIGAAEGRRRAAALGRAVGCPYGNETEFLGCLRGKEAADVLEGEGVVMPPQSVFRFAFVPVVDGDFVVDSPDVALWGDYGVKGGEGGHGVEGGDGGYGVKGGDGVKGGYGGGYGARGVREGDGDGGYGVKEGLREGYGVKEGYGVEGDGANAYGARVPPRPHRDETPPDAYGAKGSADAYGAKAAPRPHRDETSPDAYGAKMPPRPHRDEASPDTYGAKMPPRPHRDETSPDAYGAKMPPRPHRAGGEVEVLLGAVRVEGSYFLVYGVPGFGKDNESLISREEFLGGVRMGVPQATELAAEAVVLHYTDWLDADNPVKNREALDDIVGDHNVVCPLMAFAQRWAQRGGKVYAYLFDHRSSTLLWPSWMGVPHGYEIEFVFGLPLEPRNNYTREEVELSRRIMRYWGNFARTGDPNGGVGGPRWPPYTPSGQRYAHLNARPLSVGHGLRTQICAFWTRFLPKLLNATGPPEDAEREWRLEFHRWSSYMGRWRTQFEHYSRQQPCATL
Method: as §2

[5] = Acute toxicity in mice, intraperitoneal; format: in vivo; conditions: IP
[6] = molecular target: HIV reverse transcriptase (Human immunodeficiency virus type 1 group M subtype B, UniProt P04585); conditions: read-out: concentration at which HIV reverse transcriptase is inhibited by 50%; cited from earlier work
[7] = cited from earlier work
[8] = added 8 hours prior to infecting with HIV, read-out: IC₅₀
[9] = added 8 hours prior to infecting with HIV

Question: What does the source list for `CCOC(=O)CC(OP(=O)(OC[C@H]1O[C@@H](n2cc(C)c(=O)[nH]c2=O)C[C@@H]1N=[N+]=[N-])OC(CC(=O)OCC)c1ccc(OC(C)=O)cc1)c1ccc(OC(C)=O)cc1` (stereo partly drawn) [AZT prodrug]?
Answer: IC50 ([1]; 144 h, 6 days, drug not added before infection, read-out: IC₅₀ (concentration that inhibited the HIV induced CPE 50%)): 24 nM; IC50 [1, 8]: 5 nM; IC90 [1, 9]: 10 nM; inhibition of acetylcholinesterase activity [2]: No inhibition; CC50 at 144 h [3]: 7800 nM; inhibition of acetylcholinesterase activity [4]: No inhibition; acute toxicity ([5]; mice, 100 mg/kg as an emulsion in 5% Emulphor EL 620): no acute toxicity; acute toxicity ([5]; one mouse, 300 mg/kg, 24 hour period of observation): without evident acute toxicity

Question: Which results are given for `Cc1cn([C@H]2C[C@H](N=[N+]=[N-])[C@@H](CO)O2)c(=O)[nH]c1=O` [AZT, 3'azido-3'deoxythymidine, reference compound]?
Answer: IC50 [1, 8]: 5 nM; IC90 [1, 9]: 10 nM

Question: With `O=C(O)P(=O)(O)O` [Phosphonoformate] as the compound, how does the IC50 [6] read?
Answer: < 2000 nM

Question: For `COc1cc(C=CC(C)=O)ccc1O` [methyl 4-hydroxy,3-methoxy-styryl ketone], which “oral LD₅₀” value [7] is on record?
Answer: > 2 grams/kg
